From patent US20250012799A1, “SARS-COV-2 POLYPEPTIDES AND USES THEREOF” (IAMA FRANCE, priority 2021, published 2025)
Read-outs that look alike come from different tables or passages of the source.

Columns and labels:
[1] = system: NKp44L membrane expression on Calu-3 cells; type: cell-based, human; settings: for Induction of NKp44L membrane expression: Calu-3, individual peptides/pools of sub-pools no 8.2 and no 8.3; for induction of the expression of NKp44L (in words): Calu-3 lung cell line
[2] = system: NKp44L membrane expression on A549: hu ACE-2 cells; type: cell-based, human; settings: for Induction of NKp44L membrane expression: A549, individual peptides/pools of sub-pools no 8.2 and no 8.3; for induction of the expression of NKp44L (in words): A549: hu ACE-2 lung cell line

Substance: qmayrfngigvtqnvlye [Spi226]
- Induction of NKp44L membrane expression ([1]; Experiment no 1): 103
- Induction of NKp44L membrane expression ([1]; Experiment no 2): 112
- Induction of NKp44L membrane expression ([1]; Experiment no 3): 119
- Induction of NKp44L membrane expression ([2]; Experiment no 1): 53
- Induction of NKp44L membrane expression ([2]; Experiment no 2): 59
- Induction of NKp44L membrane expression ([2]; Experiment no 3): 71

Substance: rfngigvtqnvlyengkl [Spi227]
- Induction of NKp44L membrane expression ([1]; Experiment no 1): 2507
- Induction of NKp44L membrane expression ([1]; Experiment no 2): 2726
- Induction of NKp44L membrane expression ([1]; Experiment no 3): 2592
- induction of the expression of NKp44L (in words) [1]: induce the expression of NKp44L
- induction of the expression of NKp44L (in words) [2]: induce the expression of NKp44L
- Induction of NKp44L membrane expression ([2]; Experiment no 1): 1402
- Induction of NKp44L membrane expression ([2]; Experiment no 2): 1517
- Induction of NKp44L membrane expression ([2]; Experiment no 3): 1538

Substance: klianqfnsaigkiqdsl [Spi231]
- Induction of NKp44L membrane expression ([1]; Experiment no 1): 2250
- Induction of NKp44L membrane expression ([1]; Experiment no 2): 2406
- Induction of NKp44L membrane expression ([1]; Experiment no 3): 2207
- induction of the expression of NKp44L (in words) [1]: induce the expression of NKp44L
- induction of the expression of NKp44L (in words) [2]: induce the expression of NKp44L
- Induction of NKp44L membrane expression ([2]; Experiment no 1): 1308
- Induction of NKp44L membrane expression ([2]; Experiment no 2): 1232
- Induction of NKp44L membrane expression ([2]; Experiment no 3): 1199

Substance: igvtqnvlyenqklianq [Spi228]
- Induction of NKp44L membrane expression ([1]; Experiment no 1): 91
- Induction of NKp44L membrane expression ([1]; Experiment no 2): 103
- Induction of NKp44L membrane expression ([1]; Experiment no 3): 117
- Induction of NKp44L membrane expression ([2]; Experiment no 1): 75
- Induction of NKp44L membrane expression ([2]; Experiment no 2): 82
- Induction of NKp44L membrane expression ([2]; Experiment no 3): 89

Substance: qnvlyenqkliangfnsa [Spi229]
- Induction of NKp44L membrane expression ([1]; Experiment no 1): 2103
- Induction of NKp44L membrane expression ([1]; Experiment no 2): 1889
- Induction of NKp44L membrane expression ([1]; Experiment no 3): 1875
- induction of the expression of NKp44L (in words) [1]: induce the expression of NKp44L
- induction of the expression of NKp44L (in words) [2]: induce the expression of NKp44L
- Induction of NKp44L membrane expression ([2]; Experiment no 1): 1167
- Induction of NKp44L membrane expression ([2]; Experiment no 2): 1021
- Induction of NKp44L membrane expression ([2]; Experiment no 3): 993

Substance: nqfnsaigkiqdslssta [Spi232]
- Induction of NKp44L membrane expression ([1]; Experiment no 1): 421
- Induction of NKp44L membrane expression ([1]; Experiment no 2): 301
- Induction of NKp44L membrane expression ([1]; Experiment no 3): 412
- Induction of NKp44L membrane expression ([2]; Experiment no 1): 101
- Induction of NKp44L membrane expression ([2]; Experiment no 2): 127
- Induction of NKp44L membrane expression ([2]; Experiment no 3): 148

Substance: yenqklianqfnsaigki [Spi230]
- Induction of NKp44L membrane expression ([1]; Experiment no 1): 2213
- Induction of NKp44L membrane expression ([1]; Experiment no 2): 2403
- Induction of NKp44L membrane expression ([1]; Experiment no 3): 2173
- induction of the expression of NKp44L (in words) [1]: induce the expression of NKp44L
- induction of the expression of NKp44L (in words) [2]: induce the expression of NKp44L
- Induction of NKp44L membrane expression ([2]; Experiment no 1): 1202
- Induction of NKp44L membrane expression ([2]; Experiment no 2): 1198
- Induction of NKp44L membrane expression ([2]; Experiment no 3): 1195
